US11976019B2 (Acuitas Therapeutics, Inc., priority 2020, dated 2024)
Marks after values point to notes of the source that are not given here.

How the values were obtained:
[1] = test system: luciferase expression in the liver; experiment: In vivo luciferase mRNA expression rodent model (liver luciferase after tail vein injection of mRNA-LNP); set-up: species or system mice (C57BL/6 or CD-1); conditions: liver 4 hours after administration, FLuc mRNA LNP; for Liver Luc @ 1.0 mg/kg: 1.0 mg mRNA/kg
Procedure: Lipid nanoparticles were prepared and tested according to the general procedures described in PCT Pub. Nos. WO 2015/199952 and WO 2017/004143, the full disclosures of which are incorporated herein by reference. Briefly, cationic lipid, DSPC, cholesterol and PEG-lipid were solubilized in ethanol at a molar ratio of about 50:10:38.5:1.5 or about 47.5:10:40.8:1.7. Lipid nanoparticles (LNP) were prepared at a total lipid to mRNA weight ratio of approximately 10:1 to 30:1. The mRNA is diluted to 0.2 mg/mL in 10 to 50 mM citrate or acetate buffer, pH 4. Syringe pumps were used to mix the ethanolic lipid solution with the mRNA aqueous solution at a ratio of about 1:5 to 1:3 (vol/vol) with total flow rates above 15 mL/min. The ethanol was then removed and the external buffer replaced with PBS by dialysis. Finally, the lipid nanoparticles were filtered through a 0.2 μm pore sterile filter. Lipid nanoparticle particle size was approximately 55-95 nm diameter, and in some instances approximately 70-90 nm diameter as determined by quasi-elastic light scattering using a Malvern Zetasizer Nano ZS (Malvern, UK).
Studies were performed in 6-8 week old female C57BL/6 mice (Charles River) or 8-10 week old CD-1 (Harlan) mice (Charles River) according to guidelines established by an institutional animal care committee (ACC) and the Canadian Council on Animal Care (CCAC). Varying doses of mRNA-lipid nanoparticle were systemically administered by tail vein injection and animals euthanized at a specific time point (e.g., 4 hours) post-administration. Liver and spleen were collected in pre-weighed tubes, weights determined, immediately snap frozen in liquid nitrogen and stored at −80° C. until processing for analysis.
For liver, approximately 50 mg was dissected for analyses in a 2 mL FastPrep tubes (MP Biomedicals, Solon Ohio). ¼″ ceramic sphere (MP Biomedicals) is added to each tube and 500 μL of Glo Lysis Buffer—GLB (Promega, Madison Wis.) equilibrated to room temperature is added to liver tissue. Liver tissues were homogenized with the FastPrep24 instrument (MP Biomedicals) at 2×6.0 m/s for 15 seconds. Homogenate was incubated at room temperature for 5 minutes prior to a 1:4 dilution in GLB and assessed using SteadyGlo Luciferase assay system (Promega). Specifically, 50 μL of diluted tissue homogenate was reacted with 50 μL of SteadyGlo substrate, shaken for 10 seconds followed by 5 minute incubation and then quantitated using a CentroXS^3 LB 960 luminometer (Berthold Technologies, Germany). The amount of protein assayed was determined by using the BCA protein assay kit (Pierce, Rockford Ill.). Relative luminescence units (RLU) were then normalized to total μg protein assayed. To convert RLU to ng luciferase a standard curve was generated with QuantiLum Recombinant Luciferase (Promega).
The FLuc mRNA (L-6107 or L-7202) from Trilink Biotechnologies will express a luciferase protein, originally isolated from the firefly, Photinus pyralis. FLuc is commonly used in mammalian cell culture to measure both gene expression and cell viability. It emits bioluminescence in the presence of the substrate, luciferin. This capped and poly-adenylated mRNA was fully substituted with respect to uridine and/or cytidine nucleosides.
Representative compounds of the disclosure shown in Table 2 were formulated using the following molar ratio: 50% cationic lipid/10% distearoylphosphatidylcholine (DSPC)/38.5% Cholesterol/1.5% PEG lipid 2-[2-(ω-methoxy(polyethyleneglycol2000)ethoxy]-N,N-ditetradecylacetamide) or 47.5% cationic lipid/10% DSPC/40.7% Cholesterol/1.8% PEG lipid. Relative activity was determined by measuring luciferase expression in the liver 4 hours following administration via tail vein injection as described in Example 1. The activity was compared at a dose of 1.0 or 0.5 mg mRNA/kg and expressed as ng luciferase/g liver measured 4 hours after administration, as described in Example 1. Compound numbers in Table 2 refer to the compound numbers of Table 1.

[2] = Determination of pKa of formulated lipids (TNS fluorescence assay in lipid nanoparticles); type: physicochemical; conditions: cationic lipid formulated in LNP (cationic lipid/DSPC/cholesterol/PEG-lipid 50/10/38.5/1.5 mol %); pH of half-maximal TNS fluorescence
Procedure: As described elsewhere, the pKa of formulated cationic lipids is correlated with the effectiveness of LNPs for delivery of nucleic acids (see Jayaraman et al, Angewandte Chemie, International Edition (2012), 51(34), 8529-8533; Semple et al, Nature Biotechnology 28, 172-176 (2010)). The preferred range of pKa is ˜5 to ˜7. The pKa of each cationic lipid was determined in lipid nanoparticles using an assay based on fluorescence of 2-(p-toluidino)-6-napthalene sulfonic acid (TNS). Lipid nanoparticles comprising cationic lipid/DSPC/cholesterol/PEG-lipid (50/10/38.5/1.5 mol %) in PBS at a concentration of 0.4 mM total lipid were prepared using the in-line process as described in Example 1. TNS was prepared as a 100 μM stock solution in distilled water. Vesicles were diluted to 24 μM lipid in 2 mL of buffered solutions containing, 10 mM HEPES, 10 mM IVIES, 10 mM ammonium acetate, 130 mM NaCl, where the pH ranged from 2.5 to 11. An aliquot of the TNS solution was added to give a final concentration of 1 μM and following vortex mixing fluorescence intensity was measured at room temperature in a SLM Aminco Series 2 Luminescence Spectrophotometer using excitation and emission wavelengths of 321 nm and 445 nm. A sigmoidal best fit analysis was applied to the fluorescence data and the pKa was measured as the pH giving rise to half-maximal fluorescence intensity.

[3] = test system: luciferase expression in the liver; experiment: In vivo luciferase mRNA expression rodent model (liver luciferase after tail vein injection of mRNA-LNP); set-up: species or system mice (C57BL/6 or CD-1); conditions: liver 4 hours after administration, FLuc mRNA LNP

Row | SMILES | Liver Luc @ 1.0 mg/kg [1] | pKa [2] | Liver Luc determined at 0.3 mg/kg [3] | Liver Luc determined at 0.5 mg/kg [1]
1 | CCCCCCCCOC(=O)CCN(CCCCN(C)C)C(CCCCCCCCC(=O)OCC(CCCC)CCCCCC)CCCCCCCCC(=O)OCC(CCCC)CCCCCC (centres unmarked) [Compound I-1] | 24031 ± 4777 ng luc/g liver | 6.11 | – | –
2 | CCCCCCCCOC(=O)CCN(CCCCCN(C)C)C(CCCCCCCCC(=O)OCC(CCCC)CCCCCC)CCCCCCCCC(=O)OCC(CCCC)CCCCCC (centres unmarked) [Compound I-2, bis(2-butyloctyl) 10-((5-(dimethylamino)pentyl)(3-(octyloxy)-3-oxopropyl)amino)nonadecanedioate] | 682 ± 147 ng luc/g liver | 6.67 | 122 ± 18 ng luc/g liver | –
3 | CCCCCCCCOC(=O)CCN(CCCCN(C)C)C(CCCCCC(=O)OCC(CCCCCC)CCCCCCCC)CCCCCC(=O)OCC(CCCCCC)CCCCCCCC (centres unmarked) [Compound I-4, bis(2-hexyldecyl) 7-((4-(dimethylamino)butyl)(3-(octyloxy)-3-oxopropyl)amino)tridecanedioate] | 46932 ± 17399 ng luc/g liver | 6.17 | – | –
4 | CCCCCCCCC(CCCCCC)C(=O)OCCCCCCN(CCCCN(C)C)C(CCCCCCCCC(=O)OCC(CCCC)CCCCCC)CCCCCCCCC(=O)OCC(CCCC)CCCCCC (centres unmarked) [Compound I-5, bis(2-butyloctyl) 10-((4-(dimethylamino)butyl)(6-((2-hexyldecanoyl)oxy)hexyl)amino)nonadecanedioate] | 11720 ± 2439 ng luc/g liver | 6.08 | – | –
5 | CCCCCCCCCN(CCCCN(C)C)C(CCCCCCCCC(=O)OCC(CCCC)CCCCCC)CCCCCCCCC(=O)OCC(CCCC)CCCCCC (centres unmarked) [Compound I-6] | 11290 ± 6455 ng luc/g liver | 6.22 | 4093 ± 1036 ng luc/g liver | –
6 | CCCCCCC(CCCC)COC(=O)CCCCCCCCC(CCCCCCCCC(=O)OCC(CCCC)CCCCCC)N(CCCN(C)C)C(=O)CCCCC(=O)OC (centres unmarked) [Compound I-14, bis(2-butyloctyl) 10-(N-(3-(dimethylamino)propyl)-6-methoxy-6-oxohexanamido)nonadecanedioate] | – | 6.8 | – | 669 ± 575* *determined at 0.5 mg/kg ng luc/g liver
7 | CCCCCCC(CCCC)COC(=O)CCCCCCCCC(CCCCCCCCC(=O)OCC(CCCC)CCCCCC)N(CCN(C)C)C(=O)CCCCC(=O)OC (centres unmarked) [Compound I-15, bis(2-butyloctyl) 10-(N-(2-(dimethylamino)ethyl)-6-methoxy-6-oxohexanamido)nonadecanedioate] | 21357 ± 15325 ng luc/g liver | 5.96 | – | –
8 | CCCCCCCCC(CCCCCC)COC(=O)CCCCCC(CCCCCC(=O)OCC(CCCCCC)CCCCCCCC)N(CCN(C)C)C(=O)CCCCC(=O)OC (centres unmarked) [Compound I-16, bis(2-hexyldecyl) 7-(N-(2-(dimethylamino)ethyl)-6-methoxy-6-oxohexanamido)tridecanedioate] | 66763 ± 15823 ng luc/g liver | 6.25 | – | –
9 | CCCCCCCCC(CCCCCC)COC(=O)CCCCCC(CCCCCC(=O)OCC(CCCCCC)CCCCCCCC)N(CCCN(C)C)C(=O)CCCCCCC(=O)OC (centres unmarked) [Compound I-17, bis(2-hexyldecyl) 7-(N-(3-(dimethylamino)propyl)-8-methoxy-8-oxooctanamido)tridecanedioate] | 26691 ± 13186 ng luc/g liver | 6.78 | – | –
10 | CCCCCCCCC(CCCCCC)COC(=O)CCCCCC(CCCCCC(=O)OCC(CCCCCC)CCCCCCCC)N(CCN(C)C)C(=O)CCCCCCC(=O)OC (centres unmarked) [Compound I-18, bis(2-hexyldecyl) 7-(N-(2-(dimethylamino)ethyl)-8-methoxy-8-oxooctanamido)tridecanedioate] | 40650 ± 11479 ng luc/g liver | 6.02 | – | –
11 | CCCCCCCCC(CCCCCC)COC(=O)CCCCCC(CCCCCC(=O)OCC(CCCCCC)CCCCCCCC)N(CCCC(=O)N(CCCCCC)CCCCCC)CCN(C)C (centres unmarked) [Compound I-19, bis(2-hexyldecyl) 7-((4-(dihexylamino)-4-oxobutyl)(2-(dimethylamino)ethyl)amino)tridecanedioate] | 32706 ± 4621 ng luc/g liver | 5.95 | – | –
12 | CCCCCCC(CCCC)COC(=O)CCCCCC(CCCCCC(=O)OCC(CCCC)CCCCCC)N(CCCC(=O)N(CCCCCC)CCCCCC)CCCN(C)C (centres unmarked) [Compound I-20, bis(2-butyloctyl) 7-((4-(dihexylamino)-4-oxobutyl)(3-(dimethylamino)propyl)amino)tridecanedioate] | 17095 ± 8181 ng luc/g liver | 6.48 | 4140 ± 1117 ng luc/g liver | –
13 | CCCCCCC(CCCC)COC(=O)CCCCCCCCC(CCCCCCCCC(=O)OCC(CCCC)CCCCCC)N(CCCC(=O)N(CCCCCC)CCCCCC)CCCN(C)C (centres unmarked) [Compound I-21, bis(2-butyloctyl) 10-((4-(dihexylamino)-4-oxobutyl)(3-(dimethylamino)propyl)amino)nonadecanedioate] | 20223 ± 5982 ng luc/g liver | 6.4 | 7723 ± 1714 ng luc/g liver | –
14 | CCCCCCCCC(CCCCCC)C(=O)OCCCCCCN(CCCCN(C)C)C(CCCCCCCCC(=O)OCC(CC)CCCC)CCCCCCCCC(=O)OCC(CC)CCCC (centres unmarked) [Compound I-22, bis(2-ethylhexyl) 10-((4-(dimethylamino)butyl)(6-((2-hexyldecanoyl)oxy)hexyl)amino)nonadecanedioate] | 17654 ± 8167 ng luc/g liver | 6.28 | 5291 ± 1348 ng luc/g liver | –
15 | CCCCCCCCN(CCCCN(C)C)C(CCCCCCCCC(=O)OCC(CCCC)CCCCCC)CCCCCCCCC(=O)OCC(CCCC)CCCCCC (centres unmarked) [Compound I-23, bis(2-butyloctyl) 10-((4-(dimethylamino)butyl)(octyl)amino)nonadecanedioate] | – | 6.33 | – | 553 ± 153* *determined at 0.5 mg/kg ng luc/g liver
